{"source": "paper PMC6905855", "about": "“Agonist-specific voltage-dependent gating of lysosomal two-pore Na^+ channels” (eLife, 2019)", "key": {"[1]": {"tested_on": "T1, TPC2^K204A in HEK293 cells", "T1 construct": "expressed in transfected cells; host or cells: HEK293", "assay": "Whole-cell recordings of ITPC2-K204A", "type": "cell-based, human", "conditions": "TPC2^K204A-transfected HEK293 cells"}, "TPC1/2 DKO HAP1 cells": {"tested_on": "TPC1/2 DKO HAP1 cells", "assay": "Whole-endolysosome recordings in TPC1/2 DKO HAP1 cells", "type": "biochemical, human", "conditions": "for whole-endolysome ITPC current: dko HAP1, LyNa-VA1.1 (50 µM) co-applied with PI(3,5)P2 (0.3 µM)", "excerpt": "TCAs, with a general structure of an aromatic greasy core and an aliphatic chain containing a terminal amine, are lysosomotropic compounds that are known to be highly accumulating in the lysosomes due to proton trapping ([Beckmann et al., 2014]). We next tested the effects of LyNa-VAs in hTPC2-transfected Cos1 and HEK293 cells using whole-endolyosome patch-clamp.\n(§1) Data are presented as Mean ± S.E.M (n = 3 patches). […] For panels B, D and F, individual data and Mean ± S.E.M are presented. *, p<0.05; **, p<0.01; ***, p<0.001; N.S., no significance. Figure 3—source data 1. […] Figure 3—figure supplement 1. […] Both individual data points and Mean ± S.E.M are presented (n ≥ 3 patches; also see individual data in Figure 3—figure supplement 1—source data 1). Figure 3—figure supplement 1—source data 1.\nTPC1 and TPC2 CRISPR KO cells were generated in HAP1 cells using the CRISPR/Cas9 system. The TPC1 sequence (5'cttgcagtacttcagcaccc3', TPC1-sgRNA) and TPC2 sequence (5'ccccagcgtcgggctgctgc3', TPC2-sgRNA) were targeted with pSpCas9 (BB)−2A-puro vector (Addgene). HAP1 cells were co-transfected with TPC1 and TPC2-sgRNA expressing vector in the presence of Lipofectamine 2000 (In vitrogen) and selected with 2 μg/ml puromycin for 48 hr. The remaining cells were trypsinized and seeded into 96-well plate after a limiting dilution. When single cell clones were established, their genomic DNAs were extracted and amplified with following primers: TPC1-fw: 5’atggcccagacatgtgactc3’, TPC1-re: 5’ tgcctgtctccatcctctca3’; TPC2-fw: 5’tgagctgagcatgaggcaag3’, TPC2-re: 5’ aaaggacaagtggccctgag3’. The PCR amplicons were then sequenced to confirm the intended genetic disruption.\n(§2) Whole-endolysosome recordings were performed on manually isolated enlarged endolysosomes ([Wang et al., 2012]). In brief, a patch pipette was pressed against a cell and quickly pulled away to slice the cell membrane. Enlarged endolysosomes were released into a dish and identified by monitoring EGFP-TPC1/2 or the mCherry-TPC1/2 fluorescence. After formation of a gigaseal between the patch pipette and the enlarged endolysosome, capacitance transients were compensated. Voltage steps of several hundred mVs with millisecond duration were then applied to break into the vacuolar membrane. The whole-endolysosome configuration was verified by the re-appearance of capacitance transients after break-in.\n(§3) Data were collected using an Axopatch 200A patch clamp amplifier, Digidata 1440, and pClamp 10.2 software (Axon Instruments). Whole-endolysosome currents were digitized at 10 kHz and filtered at 2 kHz. All experiments were conducted at room temperature (21–23°C), and all recordings were analyzed with pClamp 10.2, and Origin 8.0 (OriginLab, Northampton, MA). The permeability to cations (relative to PNa) was estimated based on following equations ([Lewis, 1979]) and Erev measurement under bi-ionic conditions:(1) PX/PNa=γNa/γX{[Na^+]Luminal/[X^+]Cytoplasmic}{exp([…])} (2) PCa/PNa=γNa/γCa{[Na^+]Cytoplasmic/[4[Ca^2+]Luminal}{exp(ErevF/RT)}{1+exp(ErevF/RT)} where R, T, F, Erev, and γ are, respectively, the gas constant, absolute temperature, Faraday constant, reversal potential, and activity coefficient."}, "[2]": {"tested_on": "endogenous TPCs in WT HAP1 cells", "assay": "Whole-endolysosome recordings of endogenous ITPC in WT HAP1 cells", "type": "biochemical, human", "conditions": "for whole-endolysome ITPC current: wt HAP1, LyNa-VA1.1 (50 µM) co-applied with PI(3,5)P2 (0.3 µM)"}, "TRPML1": {"tested_on": "T2, TRPML1", "T2 construct": "expressed in transfected cells", "assay": "Whole-endolysosome recordings of ITRPML1", "type": "biochemical", "conditions": "TRPML1-transfected cells"}, "[3]": {"target": "T3, PI(3,5)P2-insensitive mutant TPC2 channel (K204A) (Homo sapiens, UniProt Q8NHX9, K204A)", "T3 construct": "expressed in transfected cells; host or cells: HEK293", "T3 sequence (Q8NHX9 whole entry K204A)": "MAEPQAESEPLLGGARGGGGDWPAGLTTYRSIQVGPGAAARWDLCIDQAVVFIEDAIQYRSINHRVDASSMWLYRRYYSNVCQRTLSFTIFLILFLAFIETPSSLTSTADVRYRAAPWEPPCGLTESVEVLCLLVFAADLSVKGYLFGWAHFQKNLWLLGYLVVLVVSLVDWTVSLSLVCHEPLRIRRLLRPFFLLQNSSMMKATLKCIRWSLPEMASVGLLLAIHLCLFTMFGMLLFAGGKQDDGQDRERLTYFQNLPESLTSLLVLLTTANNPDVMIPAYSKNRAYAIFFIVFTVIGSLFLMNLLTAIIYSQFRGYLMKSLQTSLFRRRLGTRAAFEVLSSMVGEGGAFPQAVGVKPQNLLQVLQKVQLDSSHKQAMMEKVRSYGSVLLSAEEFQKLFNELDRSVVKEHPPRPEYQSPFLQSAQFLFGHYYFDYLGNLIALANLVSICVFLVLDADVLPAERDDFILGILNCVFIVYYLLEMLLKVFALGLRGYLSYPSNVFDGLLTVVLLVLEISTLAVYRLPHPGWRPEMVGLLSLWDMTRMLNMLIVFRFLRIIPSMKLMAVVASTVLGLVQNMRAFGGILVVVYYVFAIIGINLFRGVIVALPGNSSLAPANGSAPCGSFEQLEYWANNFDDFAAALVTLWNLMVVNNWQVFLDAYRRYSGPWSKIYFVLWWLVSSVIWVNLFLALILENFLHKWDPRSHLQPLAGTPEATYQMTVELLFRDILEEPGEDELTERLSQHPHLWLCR", "assay": "Whole-endolysosome recordings of ITPC2-K204A", "type": "biochemical", "conditions": "for Normalized I-TPC2: TPC2-K204A", "excerpt": "PI(3,5)P2 reportedly binds to Lys204 and adjacent AA residues to activate TPC2 ([She et al., 2019]). […] Lysosomal PI(3,5)P2 may play a permissive role in TPC activation in intact cells ([Ruas et al., 2015]).\nas §1\nAll TPC1 and TPC2 mutants were generated with a site-directed mutagenesis kit (Qiagen) using EGFP- human TPC1 and TPC2 as the templates. All constructs were confirmed by DNA sequencing.\nas §2\nas §3, with “coefficient. The liquid junction potentials were measured and corrected as described ([Neher, 1992]).” for “coefficient.”"}}, "note": "Several values for one entry are separate records, joined by “and”; a condition that tells them apart may be missing. Equal entries are not always repeated. Entries after “also recorded” stand apart in the source; their conditions may differ."}
{"smiles": "Nc1nc2ccc(OC(F)(F)F)cc2s1", "note": "[LyNA1, Riluzole]", "values": [{"measurement": "activation of whole-cell ITPC2-K204A (in words)", "setting": "[1]", "value": "activated"}, {"measurement": "activation of whole-endolysosome ITPC in TPC1/2 DKO HAP1 cells (in words)", "setting": "TPC1/2 DKO HAP1 cells", "value": "not HAP1 cells lacking TPC1 or TPC2; also recorded: not TPC1/2 double KO HAP1 cells"}, {"measurement": "activation of whole-endolysosome ITPC in WT HAP1 cells (in words)", "setting": "[2]", "value": "activated whole-endolysosome ITPC in WT HAP1 cells"}, {"measurement": "activation of whole-endolysosome ITRPML1 (in words)", "setting": "TRPML1", "value": "no current activation; also recorded: lack of the activation effects"}, {"measurement": "activation of whole-endolysosome ITPC2-K204A (in words)", "setting": "[3]", "value": "robustly activated whole-endolysosome ITPC2"}]}
{"smiles": "CN(C)CCCN1c2ccccc2CCc2ccc(Cl)cc21", "note": "[LyNa-VA1.1, Clomipramine]", "values": [{"measurement": "activation of whole-endolysosome ITPC in TPC1/2 DKO HAP1 cells (in words)", "setting": "TPC1/2 DKO HAP1 cells", "value": "not TPC1/2 DKO"}, {"measurement": "whole-endolysome ITPC current", "setting": "TPC1/2 DKO HAP1 cells; individual", "value": "15.3 pA and 12.5 pA and 24.7 pA and 10.4 pA"}, {"measurement": "whole-endolysome ITPC current", "setting": "TPC1/2 DKO HAP1 cells; mean", "value": 15.725, "unit": "pA"}, {"measurement": "activation of whole-endolysosome ITPC in WT HAP1 cells (in words)", "setting": "[2]", "value": "activated whole-endolysome ITPC in WT"}, {"measurement": "whole-endolysome ITPC current", "setting": "[2]; individual", "value": "252.1 pA and 207.1 pA and 321.7 pA and 271.3 pA"}, {"measurement": "whole-endolysome ITPC current", "setting": "[2]; mean", "value": 263.05, "unit": "pA"}, {"measurement": "EC50", "setting": "[3]; K204A +PI(3,5)P2 (50 nM), whole-endolysosome, Figure 3C", "value": "47 ± 5", "unit": "µM"}, {"measurement": "EC50", "setting": "[3]; K204A -PI(3,5)P2, whole-endolysosome, Figure 3C", "value": "56 ± 3", "unit": "µM"}, {"measurement": "EC50", "setting": "[3]; K204A -pip2, MEAN (Fig. 3D)", "value": 59.7, "unit": "µM"}, {"measurement": "EC50", "setting": "[3]; K204A -pip2, individual patches (Fig. 3D)", "value": "56.4 µM and 68.2 µM and 54.5 µM"}, {"measurement": "EC50", "setting": "[3]; K204A+pip2 (50 nM), MEAN (Fig. 3D)", "value": 48.7, "unit": "µM"}, {"measurement": "EC50", "setting": "[3]; K204A+pip2 (50 nM), individual patches (Fig. 3D)", "value": "45.5 µM and 56.2 µM and 44.4 µM"}, {"measurement": "Normalized I-TPC2", "setting": "[3]; 1 µM + PI(3,5)P2 50nM, individual patches", "value": "0.01018 and 0.1053 and 0.1347"}, {"measurement": "Normalized I-TPC2", "setting": "[3]; 1 µM + PI(3,5)P2 50nM, mean", "value": 0.08342}, {"measurement": "Normalized I-TPC2", "setting": "[3]; 3 µM + PI(3,5)P2 50nM, individual patches", "value": "-0.08987 and 0.1073 and 0.2183"}, {"measurement": "Normalized I-TPC2", "setting": "[3]; 3 µM + PI(3,5)P2 50nM, mean", "value": 0.07858}, {"measurement": "Normalized I-TPC2", "setting": "[3]; 10 µM + PI(3,5)P2 50nM, individual patches", "value": "-0.1017 and 0.1767 and 0.2594"}, {"measurement": "Normalized I-TPC2", "setting": "[3]; 10 µM + PI(3,5)P2 50nM, mean", "value": 0.1115}, {"measurement": "Normalized I-TPC2", "setting": "[3]; 10 µM, no PI(3,5)P2, individual patches", "value": "0.02985 and 0.03877 and 0.00366"}, {"measurement": "Normalized I-TPC2", "setting": "[3]; 10 µM, no PI(3,5)P2, mean", "value": 0.02409}, {"measurement": "Normalized I-TPC2", "setting": "[3]; 20 µM, no PI(3,5)P2, individual patches", "value": "0.03731 and 0.1741 and 0.01903"}, {"measurement": "Normalized I-TPC2", "setting": "[3]; 20 µM, no PI(3,5)P2, mean", "value": 0.07682}, {"measurement": "Normalized I-TPC2", "setting": "[3]; 30 µM + PI(3,5)P2 50nM, individual patches", "value": "0.119 and 0.2972 and 0.3327"}, {"measurement": "Normalized I-TPC2", "setting": "[3]; 30 µM + PI(3,5)P2 50nM, mean", "value": 0.2496}, {"measurement": "Normalized I-TPC2", "setting": "[3]; 50 µM, no PI(3,5)P2, individual patches", "value": "0.2736 and 0.4263 and 0.3898"}, {"measurement": "Normalized I-TPC2", "setting": "[3]; 50 µM, no PI(3,5)P2, mean", "value": 0.3632}, {"measurement": "Normalized I-TPC2", "setting": "[3]; 100 µM + PI(3,5)P2 50nM, individual patches", "value": "0.8468 and 1 (2×)"}, {"measurement": "Normalized I-TPC2", "setting": "[3]; 100 µM + PI(3,5)P2 50nM, mean", "value": 0.9489}, {"measurement": "Normalized I-TPC2", "setting": "[3]; 100 µM, no PI(3,5)P2, individual patches", "value": "0.8657 and 1 and 0.7921"}, {"measurement": "Normalized I-TPC2", "setting": "[3]; 100 µM, no PI(3,5)P2, mean", "value": 0.8859}, {"measurement": "Normalized I-TPC2", "setting": "[3]; 200 µM + PI(3,5)P2 50nM, individual patches", "value": "1 and 0.5762 and 0.9144"}, {"measurement": "Normalized I-TPC2", "setting": "[3]; 200 µM + PI(3,5)P2 50nM, mean", "value": 0.8302}, {"measurement": "Normalized I-TPC2", "setting": "[3]; 200 µM, no PI(3,5)P2, individual patches", "value": "1 (2×) and 0.8492"}, {"measurement": "Normalized I-TPC2", "setting": "[3]; 200 µM, no PI(3,5)P2, mean", "value": 0.9497}]}
{"smiles": "CNCCCN1c2ccccc2CCc2ccccc21", "note": "[LyNa-VA1.2, Desipramine]", "values": [{"measurement": "activation of whole-cell ITPC2-K204A (in words)", "setting": "[1]", "value": "activated"}]}
